Measured values: article PMC8404199, “Structure–Activity Relationships of Triple-Action Platinum(IV) Prodrugs with Albumin-Binding Properties and Immunomodulating Ligands” (Journal of Medicinal Chemistry, 2021)
Read-outs that look alike come from different tables or passages of the source.

What was measured:
[1] = test system: CT26 colon cancer allografts; assay: Anticancer activity against CT26 allografts in Balb/c mice; assay type: in vivo; conditions: iv, equimolar to 9 mg/kg oxaliplatin; for anticancer activity against CT26 tumors (in words): twice a week for 2 weeks
Procedure: Every day, the animals were monitored for body weight and the enhanced stress level, and the tumor size was measured using a caliper according to the formula length × width^2/2.

[2] = Organ distribution of platinum in SKOV3-bearing SCID mice; conditions: 24 h after single iv dose equimolar to 9 mg/kg oxaliplatin
Procedure: For tissue digestion, approx. 25–50 mg of tissue was weighed into perfluoralkoxy tubes, and 2 mL of HNO3 and 100 μL H2O2 (30%, Suprapur, Merck, Darmstadt, Germany) were added. The solutions were placed on a hot plate and heated up for 7 h using a temperature program with a maximum of 200 °C. The liquids were transferred to 15 mL tubes with the remaining solution being removed by washing twice with 4 mL of ultrapure water.
Platinum concentrations were measured using an Agilent 7800 ICP-QMS instrument (Agilent Technologies, Tokyo, Japan) equipped with an Agilent SPS 4 autosampler (Agilent Technologies, Tokyo, Japan) and a MicroMist nebulizer at a sample uptake rate of approx. 0.2 mL/min. […] All of the measured samples were blank corrected (for the cell culture data, wells containing no cells were used). Elemental standard solutions were purchased from Labkings (Hilversum, The Netherlands). The instrument was tuned on a daily basis.
SKOV3 cells (1.5 × 10^6 cells in 50 μL serum-free medium) were injected subcutaneously into the right flank of male SCID mice. […] Then, the animals were sacrificed by cervical dislocation, and tumors and organs were collected for the measurement with ICP–MS. For plasma isolation, blood was collected in ethylenediaminetetraacetic acid (EDTA)-coated tubes and centrifuged for 10 min at 900g at 4 °C. Plasma was transferred to a new tube and centrifuged once more to remove residual red blood cells.

[3] = test system: human embryonic kidney cells (HEK293); assay: MTT cytotoxicity assay in non-malignant HEK293 cells; assay type: cell-based; conditions: 72 h
Procedure: (§1) The cells were seeded at 3500–6000 cells/well in 96-well plates depending on the proliferation rate of the respective cell line and allowed to recover for 24 h. Subsequently, the cells were treated at indicated concentrations for 48 or 72 h. Cells were additionally incubated with 5-fold equimolar concentrations of ascorbic acid to increase the reduction rate of the compounds. Cell viability was measured by the MTT-based vitality assay (EZ4U; Biomedica, Vienna, Austria), following the manufacturer’s recommendations.

SKOV3 cancer cells = assay: Long-term cytotoxicity assay (crystal violet) in SKOV3 cells; assay type: cell-based, human; conditions: 168 h, crystal violet stain, mean ± SD
Procedure: SKOV3 cells were seeded in duplicates at 5000 cells/well in 24-well plates and allowed to recover for 24 h. Subsequently, the cells were treated at the indicated concentrations for 168 h. Cells were fixed with ice-cold methanol (20 min at 4 °C), washed with PBS, and stained with crystal violet. Subsequently, colony formation was inspected, and the fluorescence signal was detected using Typhoon Trio imager (GE Healthcare, Little Chalfont, UK) at 610/30 nm BP and analyzed by ImageJ software.

human SKOV3 cancer cells = assay: MTT cytotoxicity assay in SKOV3 cells; assay type: cell-based; conditions: 72 h incubation
Procedure: as §1

[4] = test system: human HCT116 colon cancer cells; assay: MTT cytotoxicity assay in HCT116 cells; assay type: cell-based
Procedure: (§2) Cells were additionally incubated with 5-fold equimolar concentrations of ascorbic acid to increase the reduction rate of the compounds. Cell viability was measured by the MTT-based vitality assay (EZ4U; Biomedica, Vienna, Austria), following the manufacturer’s recommendations.

[5] = test system: VM7 melanoma cancer cells; assay: MTT cytotoxicity assay in VM7 cells; assay type: cell-based, human; conditions: 72 h
Procedure: as §1

[6] = test system: murine CT26 colon cancer cells; assay: MTT cytotoxicity assay in CT26 cells; assay type: cell-based
Procedure: as §2

[7] = test system: human hepatic cell line (WRL68); assay: MTT cytotoxicity assay in non-malignant WRL68 cells; assay type: cell-based; conditions: 72 h
Procedure: as §1

[8] = 48 h incubation, with 5 equiv AA, read-out: HCT116 IC50 values +AA, mean ± SD
[9] = 48 h incubation, without AA, read-out: HCT116 IC50 values, mean ± SD
[10] = 72 h incubation, with 5 eq. AA, read-out: HCT116 IC50 values + 5 eq. AA, mean
[11] = 72 h incubation, without AA, read-out: HCT116 IC50 values, mean
[12] = 48 h incubation, with 5 equiv AA, read-out: CT26 IC50 values +AA, mean ± SD
[13] = 48 h incubation, without AA, read-out: CT26 IC50 values, mean ± SD
[14] = 72 h incubation, with 5 eq. AA, read-out: CT26 IC50 values + 5 eq. AA, mean
[15] = 72 h incubation, without AA, read-out: CT26 IC50 values, mean

SMILES | anticancer activity against CT26 tumors (in words) [1] | platinum levels in blood plasma [2] [mg/kg] | IC50 [3] [µM] | IC50 [4, 8] [µM] | IC50 [4, 9] [µM] | IC50 [4, 10] [µM] | IC50 [4, 11] [µM] | IC50 [5] [µM] | IC50 [6, 12] [µM] | IC50 [6, 13] [µM] | IC50 [6, 14] [µM] | IC50 [6, 15] [µM] | IC50 [7] [µM] | also measured
Cn1cc(C[C@@H](NC(=O)[O][Pt]2([O]C(=O)NCCCCCN3C(=O)C=CC3=O)[O]C(=O)C(=O)[O]2)C(=O)O)c2ccccc21.N[C@@H]1CCCC[C@H]1N [MalCa/IdoCa, (OC-6-24)-[(R)-(1-Carboxy-2-(1-methyl-1H-indol-3-yl)ethyl)carbamato][(1R,2R)-1,2-cyclohexanediamino][5-(2,5-dioxo-2,5-dihydro-1H-pyrrol-1-yl)pentylcarbamato]oxalatoplatinum(IV)] | significant anticancer activity | 6.4 | – | – | – | – | – | – | – | – | – | – | – | activity directly compared to oxaliplatin: tumor growth and overall survival [1]: superior to oxaliplatin; Platinum ratio tumor:kidney ([2]; ratio of mean platinum levels): 0.5; Platinum ratio tumor:liver ([2]; ratio of mean platinum levels): 0.5
CC(=O)[O][Pt]1([O]C(=O)NCCCCCN2C(=O)CCC2=O)[O]C(=O)C(=O)[O]1.N[C@@H]1CCCC[C@H]1N [SucCa/OAc, (OC-6-34)-Acetato[(1R,2R)-1,2-cyclohexanediamine]oxalato[(5-(2,5-dioxopyrrolidin-1-yl)pentyl)carbamato]platinum(IV)] | – | – | 50.8 | 34 ± 1.58 | > 100 | 21.8 | 42 | > 100 | 28.2 ± 1.81 | 75.21 ± 0.11 | 40.4 | 55.2 | > 100 | IC50 (SKOV3 cancer cells): 29.7 ± 0.3 µM; IC50 (human SKOV3 cancer cells; with 5 eq. AA, read-out: SKOV3 IC50 values + 5 eq. AA, mean): > 100 µM; IC50 (human SKOV3 cancer cells; without AA, read-out: SKOV3 IC50 values, mean): > 100 µM; ratio (IC50 without AA / with AA), HCT116 ([4]; 48 h): ≥2.9; ratio (IC50 without AA / with AA), HCT116 ([4]; 72 h): 1.93; ratio (IC50 without AA / with AA), CT26 ([6]; 48 h): 2.67; ratio (IC50 without AA / with AA), CT26 ([6]; 72 h): 1.37
CC(=O)[O][Pt]1([O]C(C)=O)[O]C(=O)C(=O)[O]1.N[C@@H]1CCCC[C@H]1N [OAc/OAc, reference compound] | – | – | 12.2 | 20.1 ± 1.57 | 26.6 ± 2.41 | 11.5 | 14.3 | 43.5 | 22.6 ± 0.16 | 25.7 ± 1.4 | 33.5 | 42.3 | 33.6 | –
Cn1cc(CC([NH3+])C(=O)[O][Pt]23([O]C(=O)CCCCCN4C(=O)C=CC4=O)([NH]C4CCCCC4[NH]2)[O]C(=O)C(=O)[O]3)c2ccccc21.O=C([O-])C(F)(F)F [MalEs/IdoEs, (OC-6-44)-[(R)-2-Ammonio-3-(1-methyl-1H-indol-3-yl)propanoato][(1R,2R)-1,2-yclohexanediamino][6-(2,5-dioxo-2,5-dihydro-1H-pyrrol-1-yl)hexanoato]oxalatoplatinum(IV) Trifluoroacetate] | inactive | 3.7 | – | – | – | – | – | – | – | – | – | – | – | –
